According to patent US20260256792A1, “TREATMENT OF CHRONIC SPONTANEOUS URTICARIA BY ADMINISTERING (R)-2-[3-[4-AMINO-3-(2-FLUORO-4-PHENOXY-PHENYL)PYRAZOLO[3,4-D]PYRIMIDIN-1-YL]PIPERIDINE-1-CARBONYL]-4-METHYL-4-[4-(OXETAN-3-YL)PIPERAZIN-1-YL]PENT-2-ENENITRILE” (priority 2023, published 2026):

System: moderate-to-severe chronic spontaneous urticaria (CSU)
Assay: Phase 2 CSU study: urticaria activity score over 7 days (UAS7)
Format: in vivo, human
Conditions: for Change from Baseline in UAS7 at Week 12: Mean (SD) / Change from Baseline in UAS7 at Week 12: LS Mean Diff vs. placebo (95% CI) / Change from Baseline in UAS7 at Week 12: LS Mean (SE): Omalizumab-Naïve; for Imputed non-responder n (%), UAS7 = 0 / Imputed non-responder n (%), UAS7 ≤6 / Non-responder n (%), UAS7 = 0 / Non-responder n (%), UAS7 ≤6 / OR for rilzabrutinib vs. placebo, UAS7 = 0 / OR for rilzabrutinib vs. placebo, UAS7 ≤6 / RRD (%) for rilzabrutinib vs. placebo, UAS7 = 0 / RRD (%) for rilzabrutinib vs. placebo, UAS7 ≤6 / Responder n (%), UAS7 = 0 / Responder n (%), UAS7 ≤6: Omalizumab-naïve
Excerpt: The study comprises a 12 week, randomized, double-blind, placebo-controlled, multi-center, dose-ranging efficacy and safety phase, followed by a 40 week open label extension (OLE) phase (see FIG. 1). The study consists of three phases and an optional OLE phase. […] Clinically, CSU is characterized by the spontaneous and recurrent appearance of pruritic hives. The proposed primary endpoints were the UAS7 at Week 12 in EU and EU reference countries and the ISS7 in the US. Regardless of where a participant was from, all assessments were the same. The UAS7 score is a composite score containing both the HSS7 and the ISS7. This allowed a global assessment of the two key components of urticaria: hives and itch. […] The UAS is a validated PRO measure. […] The daily UAS scores range from 0 to 6 point/day. […] Patients were to complete the UAS using the e-diary. […] The following secondary endpoints were to be analyzed using the same approach as for the primary endpoint: • Change from baseline in UAS7 at Week 4 • Change from baseline in UAS7 at Week 12 (for US and US reference countries) • Change from baseline in ISS7 at Week 12 (except US and US reference countries) • Change from baseline in HSS7 at Week 12 The following responder secondary endpoints were to be analyzed using the Cochran-Mantel-Haenszel test adjusted by region: • Proportion of participants with UAS7<6 at Week 12 • Proportion of participants with UAS7=0 at Week 12 Participants who received selected prohibited medications and/or rescue medications were to be considered as non-responders for time points after the medication usage. For other participants, all available data including those collected during the off-treatment period were to be used to determine the responder/non-responder status. Missing data were to be considered as non-responders.

[1] = Region Latin America, 400 mg TID
[2] = Region Western Countries, 400 mg BID
[3] = Region Western Countries, 400 mg QPM
[4] = Region Western Countries, 400 mg TID

CC(C)(C=C(C#N)C(=O)N1CCC[C@@H](n2nc(-c3ccc(Oc4ccccc4)cc3F)c3c(N)ncnc32)C1)N1CCN(C2COC2)CC1 [rilzabrutinib, (R)-2-[3-[4-amino-3-(2-fluoro-4-phenoxy-phenyl)pyrazolo[3,4-d]pyrimidin-1-yl]piperidine-1-carbonyl]-4-methyl-4-[4-(oxetan-3-yl)piperazin-1-yl]pent-2-enenitrile]
Change from Baseline in UAS7 at Week 12: Mean (SD) (Region Latin America, 400 mg QPM): −13.28 (10.78)
Change from Baseline in UAS7 at Week 12: LS Mean Diff vs. placebo (95% CI) [1]: 0.38 (−10.12, 10.88)
Change from Baseline in UAS7 at Week 12: Mean (SD) [1]: −14.07 (12.07)
Change from Baseline in UAS7 at Week 12: LS Mean (SE) [2]: −20.19 (3.23)
Change from Baseline in UAS7 at Week 12: LS Mean Diff vs. placebo (95% CI) [2]: −12.21 (−21.37, −3.06)
Change from Baseline in UAS7 at Week 12: Mean (SD) [2]: −20.62 (10.65)
Change from Baseline in UAS7 at Week 12: LS Mean (SE) [3]: −8.74 (4.03)
Change from Baseline in UAS7 at Week 12: Mean (SD) [3]: −10.70 (8.61)
Change from Baseline in UAS7 at Week 12: LS Mean (SE) [4]: −19.49 (3.03)
Change from Baseline in UAS7 at Week 12: Mean (SD) [4]: −23.13 (10.61)
Imputed non-responder n (%), UAS7 = 0 (400 mg BID, Week 1): 0 n (%)
Imputed non-responder n (%), UAS7 ≤6 (400 mg BID, Week 1): 0 n (%)
Non-responder n (%), UAS7 = 0 (400 mg BID, Week 1): 32 (91.4) n (%)
Non-responder n (%), UAS7 ≤6 (400 mg BID, Week 1): 29 (82.9) n (%)
OR for rilzabrutinib vs. placebo, UAS7 = 0 (400 mg BID, Week 1): 3.242
OR for rilzabrutinib vs. placebo, UAS7 ≤6 (400 mg BID, Week 1): 3.183
RRD (%) for rilzabrutinib vs. placebo, UAS7 = 0 (400 mg BID, Week 1): 5.6 %
RRD (%) for rilzabrutinib vs. placebo, UAS7 ≤6 (400 mg BID, Week 1): 9.9 %
Responder n (%), UAS7 = 0 (400 mg BID, Week 1): 3 (8.6) n (%)
Responder n (%), UAS7 ≤6 (400 mg BID, Week 1): 6 (17.1) n (%)
Imputed non-responder n (%), UAS7 = 0 (400 mg BID, Week 2): 1 (2.9) n (%)
Imputed non-responder n (%), UAS7 ≤6 (400 mg BID, Week 2): 1 (2.9) n (%)
Non-responder n (%), UAS7 = 0 (400 mg BID, Week 2): 33 (94.3) n (%)
Non-responder n (%), UAS7 ≤6 (400 mg BID, Week 2): 31 (88.6) n (%)
OR for rilzabrutinib vs. placebo, UAS7 = 0 (400 mg BID, Week 2): 2.024
OR for rilzabrutinib vs. placebo, UAS7 ≤6 (400 mg BID, Week 2): 1.917
RRD (%) for rilzabrutinib vs. placebo, UAS7 = 0 (400 mg BID, Week 2): 2.5 %
RRD (%) for rilzabrutinib vs. placebo, UAS7 ≤6 (400 mg BID, Week 2): 4.4 %
Responder n (%), UAS7 = 0 (400 mg BID, Week 2): 2 (5.7) n (%)
Responder n (%), UAS7 ≤6 (400 mg BID, Week 2): 4 (11.4) n (%)
Imputed non-responder n (%), UAS7 = 0 (400 mg BID, Week 3): 0 n (%)
Imputed non-responder n (%), UAS7 ≤6 (400 mg BID, Week 3): 0 n (%)
Non-responder n (%), UAS7 = 0 (400 mg BID, Week 3): 32 (91.4) n (%)
Non-responder n (%), UAS7 ≤6 (400 mg BID, Week 3): 27 (77.1) n (%)
OR for rilzabrutinib vs. placebo, UAS7 = 0 (400 mg BID, Week 3): 3.036
OR for rilzabrutinib vs. placebo, UAS7 ≤6 (400 mg BID, Week 3): 2.894
RRD (%) for rilzabrutinib vs. placebo, UAS7 = 0 (400 mg BID, Week 3): 5.0 %
RRD (%) for rilzabrutinib vs. placebo, UAS7 ≤6 (400 mg BID, Week 3): 13.3 %
Responder n (%), UAS7 = 0 (400 mg BID, Week 3): 3 (8.6) n (%)
Responder n (%), UAS7 ≤6 (400 mg BID, Week 3): 8 (22.9) n (%)
Imputed non-responder n (%), UAS7 = 0 (400 mg BID, Week 4): 2 (5.7) n (%)
Imputed non-responder n (%), UAS7 ≤6 (400 mg BID, Week 4): 2 (5.7) n (%)
Non-responder n (%), UAS7 = 0 (400 mg BID, Week 4): 32 (91.4) n (%)
Non-responder n (%), UAS7 ≤6 (400 mg BID, Week 4): 25 (71.4) n (%)
OR for rilzabrutinib vs. placebo, UAS7 = 0 (400 mg BID, Week 4): 1.372
OR for rilzabrutinib vs. placebo, UAS7 ≤6 (400 mg BID, Week 4): 2.950
RRD (%) for rilzabrutinib vs. placebo, UAS7 = 0 (400 mg BID, Week 4): 1.9 %
RRD (%) for rilzabrutinib vs. placebo, UAS7 ≤6 (400 mg BID, Week 4): 15.8 %
Responder n (%), UAS7 = 0 (400 mg BID, Week 4): 3 (8.6) n (%)
Responder n (%), UAS7 ≤6 (400 mg BID, Week 4): 10 (28.6) n (%)
Imputed non-responder n (%), UAS7 = 0 (400 mg BID, Week 5): 2 (5.7) n (%)
Imputed non-responder n (%), UAS7 ≤6 (400 mg BID, Week 5): 2 (5.7) n (%)
Non-responder n (%), UAS7 = 0 (400 mg BID, Week 5): 31 (88.6) n (%)
Non-responder n (%), UAS7 ≤6 (400 mg BID, Week 5): 25 (71.4) n (%)
OR for rilzabrutinib vs. placebo, UAS7 = 0 (400 mg BID, Week 5): 4.254
OR for rilzabrutinib vs. placebo, UAS7 ≤6 (400 mg BID, Week 5): 6.525
RRD (%) for rilzabrutinib vs. placebo, UAS7 = 0 (400 mg BID, Week 5): 8.1 %
RRD (%) for rilzabrutinib vs. placebo, UAS7 ≤6 (400 mg BID, Week 5): 21.1 %
Responder n (%), UAS7 = 0 (400 mg BID, Week 5): 4 (11.4) n (%)
Responder n (%), UAS7 ≤6 (400 mg BID, Week 5): 10 (28.6) n (%)
Imputed non-responder n (%), UAS7 = 0 (400 mg BID, Week 6): 2 (5.7) n (%)
Imputed non-responder n (%), UAS7 ≤6 (400 mg BID, Week 6): 2 (5.7) n (%)
Non-responder n (%), UAS7 = 0 (400 mg BID, Week 6): 31 (88.6) n (%)
Non-responder n (%), UAS7 ≤6 (400 mg BID, Week 6): 26 (74.3) n (%)
OR for rilzabrutinib vs. placebo, UAS7 = 0 (400 mg BID, Week 6): 4.048
OR for rilzabrutinib vs. placebo, UAS7 ≤6 (400 mg BID, Week 6): 1.743
